Source: US20200223889A1, “Bicyclic Compounds Capable of Binding to Melanocortin 4 Receptor” (Novo Nordisk A/S, priority 2017, published 2020)
Read-outs that look alike come from different tables or passages of the source. Positions of bridges follow the written chain, without caps; N, C: chain ends. Non-standard residues stand in square brackets, D forms with d. Residues, ends and D or L forms follow the SMILES beside them. Hyp = O=C(O)[C@@H]1C[C@@H](O)CN1; hCit = NC(=O)NCCCC[C@H](N)C(=O)O; Thz = O=C(O)[C@@H]1CSCN1; Aib = CC(C)(N)C(=O)O; Sar = CNCC(=O)O

What was measured:
human MC4R [1] = target: T1, human MC4R (Homo sapiens, UniProt P32245); assay: 125NDP-α-MSH competitive binding to membranes of BHK cells expressing human MC4 receptor (filtration assay)
T1 construct: expressed in transfected cells
T1 sequence (P32245 whole entry): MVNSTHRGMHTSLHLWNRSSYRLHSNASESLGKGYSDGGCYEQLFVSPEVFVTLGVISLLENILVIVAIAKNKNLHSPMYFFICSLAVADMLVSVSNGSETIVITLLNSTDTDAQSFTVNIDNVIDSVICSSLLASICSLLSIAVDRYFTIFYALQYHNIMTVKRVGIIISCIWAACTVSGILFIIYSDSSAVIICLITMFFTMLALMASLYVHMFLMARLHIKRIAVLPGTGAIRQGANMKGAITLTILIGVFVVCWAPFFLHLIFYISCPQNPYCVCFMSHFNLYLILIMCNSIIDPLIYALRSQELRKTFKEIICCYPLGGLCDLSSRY
Method in brief: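 Displacement of ^125NDP-α-MSH (apx. […] final) was measured by filtration after 2 h at 25 °C, using diluted membranes of stably transfected BHK cells in pH 7.0 HEPES buffer. Compounds spanned 1 μM to 0.001 nM; binding curves were analysed by non-linear regression.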

human MC4R [2] = target: T1, human MC4R; assay: Functional cAMP assay (CisBio HTRF) in BHK cells expressing human MC4R; assay type: cell-based; conditions: for MC1R/MC4R cAMP EC50 ratio: MC1R cAMP EC50 divided by MC4R cAMP EC50
Method in brief: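 Stably transfected BHK cells expressing human MC1R or MC4R; cAMP quantified by HTRF (cAMP-d2/cryptate) after 30 min compound stimulation at 25 °C in DMEM-based buffer with 1 mM IBMX. Compounds were prepared as 10-fold serial dilutions starting at 2 μM (working solution, 2× final). Readout after 1 h at 25 °C; non-linear regression.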

human MC1R = target: T2, human MC1R (Homo sapiens, UniProt Q01726); assay: Functional cAMP assay (CisBio HTRF) in BHK cells expressing human MC1R; assay type: cell-based
T2 construct: expressed in transfected cells
T2 sequence (Q01726 whole entry): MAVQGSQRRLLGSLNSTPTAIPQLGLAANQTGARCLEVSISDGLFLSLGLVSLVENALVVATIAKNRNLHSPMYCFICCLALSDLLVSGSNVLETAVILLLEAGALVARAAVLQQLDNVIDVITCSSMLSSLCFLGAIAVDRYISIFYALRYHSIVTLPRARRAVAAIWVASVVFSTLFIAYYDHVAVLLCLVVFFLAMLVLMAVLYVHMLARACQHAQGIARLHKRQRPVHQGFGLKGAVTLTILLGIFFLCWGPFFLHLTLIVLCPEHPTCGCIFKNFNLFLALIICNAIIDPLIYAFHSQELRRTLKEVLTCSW
Method: In order to assess the potency of the compounds on human MC1R and human MC4R cAMP signalling was measured.
cAMP induction was measured by c-AMPdynamic2 assay, HTRF 62AM4PEC system from CisBio for the human MC1R and human MC4R according to the protocol provided by the vendor. BHK cells expressing the human MC1 or MC4 receptor were generated by stable transfection with expression vectors encoding the cDNA of either MC1R or MC4R.
In details; 25 μl compound—or standard solution were added in the respective wells. Compound was reconstituted in buffer (DMEM w/o phenol red, 10 mM
Hepes, lx Glutamine, 0.1% OV-albumin1, 1 mM IBMX) and serially diluted starting at 2 μM, 10-fold seven times. Dilutions were carried out in the same aforementioned buffer to the desired working concentration ranges (2× higher than the final concentration). 25 μl cell solution was then added and allowed to incubate for 30 min while lightly shaking, at 25° C. […] The provided components for the assay were reconstituted according to the CisBio assay protocol “3.1 supplied reagents and preparation procedure” in MilliQ purification system H2O and diluted 1:20 in lysis buffer. 25 μl cAMP-d2 and 25 μl Cryptate conjugate were added to all wells.
Plates were centrifuged at 1500 rpm for 30 sec and incubated for 1 h, lightly shaking, at 25° C. in a hotel stacker. The plates were read on Mithras LB 940 provided by Berthold Technologies The data were analysed by non-linear regression analysis of binding curves, using the Windows™ program GraphPad™ Prism (GraphPad Software, USA).
The latter is used when no full curve can be obtained in the concentration ranges indicated above.

[3] = human MC4R, BHK cell membranes, 125NDP-α-MSH radioligand, read-out: MC4R binding Ki
[4] = BHK cells expressing human MC4R, '>' = highest dose used with no response, read-out: MC4R cAMP EC50
[5] = BHK cells expressing human MC1R, '>' = highest dose used with no response, read-out: MC1R cAMP EC50

| SMILES | Ki (human MC4R [1]; [3]) [nM] | EC50 (human MC4R [2]; [4]) [nM] | MC1R/MC4R cAMP EC50 ratio (human MC4R [2]) | EC50 (human MC1R; [5]) [nM] | Ki (human MC4R [1]) [nM] | EC50 (human MC4R [2]) [nM] | EC50 (human MC1R) [nM] |
| --- | --- | --- | --- | --- | --- | --- | --- |
| C[C@@H]1NC(=O)[C@@H]2CSCSC[C@H](NC(=O)[C@H](Cc3c[nH]c4ccccc34)NC(=O)[C@H](CCCNC(=N)N)NC(=O)[C@@H](Cc3ccccc3)NC(=O)[C@H](Cc3c[nH]cn3)NC1=O)C(=O)N[C@@H](C)C(=O)N[C@@H](Cc1c[nH]cn1)C(=O)N[C@H](Cc1ccccc1)C(=O)N[C@@H](CCCNC(=N)N)C(=O)N[C@@H](Cc1c[nH]c3ccccc13)C(=O)N2 [Chem. 8, c[c[Cys-Ala-His-D-Phe-Arg-Trp-Cys]- Ala-His-D-Phe-Arg-Trp]] | 0.08 | 0.02 | 88 | 1.76 | – | – | – |
| C[C@@H]1NC(=O)[C@@H]2CSSC[C@H](NC(=O)[C@H](Cc3c[nH]c4ccccc34)NC(=O)[C@H](CCCCN)NC(=O)[C@H](CCCCN)NC(=O)[C@H](CCCCN)NC1=O)C(=O)N(C)CC(=O)N[C@@H](Cc1c[nH]cn1)C(=O)N[C@H](Cc1ccccc1)C(=O)N[C@@H](Cc1c[nH]cn1)C(=O)N[C@@H](Cc1c[nH]c3ccccc13)C(=O)N2 [Chem. 73, c[c[Cys-Sar-His-D-Phe-His-Trp-Cys]- Ala-Lys-Lys-Lys-Trp]] (cyclo(AKKKWC[Sar]H[dF]HWC); disulfide 6-12) | 0.3 | – | >40 | > 50 | – | – | – |
| C[C@@H]1NC(=O)[C@H](C)NC(=O)[C@@H]2CSSC[C@H](NC(=O)[C@H](Cc3c[nH]c4ccccc34)NC(=O)[C@H](C)NC(=O)[C@H](CCCCN)NC1=O)C(=O)N1CSC[C@H]1C(=O)N[C@@H](Cc1c[nH]cn1)C(=O)N[C@H](Cc1ccccc1)C(=O)N[C@@H](Cc1c[nH]cn1)C(=O)N[C@@H](Cc1c[nH]c3ccccc13)C(=O)N2 [Chem. 109, c[c[Cys-THAZ-His-D-Phe-His-Trp- Cys]-Ala-Ala-Lys-Ala-Trp]] (cyclo(AAKAWC[Thz]H[dF]HWC); disulfide 6-12) | – | – | >47 | – | 0.3 | 0.15 | > 7 |
| C[C@@H]1NC(=O)[C@@H]2CSSC[C@H](NC(=O)[C@H](Cc3c[nH]c4ccccc34)NC(=O)[C@H](CCCNC(=N)N)NC(=O)[C@@H](Cc3ccccc3)NC(=O)[C@H](Cc3c[nH]cn3)NC1=O)C(=O)N[C@@H](C)C(=O)N[C@@H](CCCCN)C(=O)N[C@@H](CCCCN)C(=O)N[C@@H](CCCCN)C(=O)N[C@@H](CCCNC(=N)N)C(=O)N2 [Chem. 59, c[c[Cys-Ala-His-D-Phe-Arg-Trp-Cys]- Ala-Lys-Lys-Lys-Arg]] (cyclo(AH[dF]RWCAKKKRC); disulfide 6-12) | 0.01 | 0.004 | 40 | 0.16 | – | – | – |
| C[C@@H]1NC(=O)[C@@H]2CSSC[C@H](NC(=O)[C@H](CCCNC(=N)N)NC(=O)[C@H](CCCCN)NC(=O)[C@H](CCCCN)NC(=O)[C@H](CCCCN)NC1=O)C(=O)N1CCC[C@H]1C(=O)N[C@@H](Cc1c[nH]cn1)C(=O)N[C@H](Cc1ccccc1)C(=O)N[C@@H](CCCCNC(N)=O)C(=O)N[C@@H](Cc1c[nH]c3ccccc13)C(=O)N2 [Chem. 99, c[c[Cys-Pro-His-D-Phe-Cit-Trp-Cys]- Ala-Lys-Lys-Lys-Arg]] (cyclo(AKKKRCPH[dF][hCit]WC); disulfide 6-12) | 0.1 | 0.39 | 14 | 5.29 | – | – | – |
| C[C@@H]1NC(=O)[C@H](C)NC(=O)[C@@H]2CSSC[C@H](NC(=O)[C@H](Cc3c[nH]c4ccccc34)NC(=O)[C@H](C)NC(=O)[C@@H](C)NC1=O)C(=O)N[C@@H](C)C(=O)N[C@@H](Cc1c[nH]cn1)C(=O)N[C@H](Cc1ccccc1)C(=O)N[C@@H](CCCNC(=N)N)C(=O)N[C@@H](Cc1c[nH]c3ccccc13)C(=O)N2 [Chem. 88, c[c[Cys-Ala-His-D-Phe-Arg-Trp-Cys]- Ala-Ala-D-Ala-Ala-Trp]] (cyclo(AA[dA]AWCAH[dF]RWC); disulfide 6-12) | – | – | 66 | – | 0.2 | 0.02 | 1.31 |
| C[C@@H]1NC(=O)[C@@H]2CSSC[C@H](NC(=O)[C@H](Cc3c[nH]c4ccccc34)NC(=O)[C@H](CCCNC(=N)N)NC(=O)[C@@H](Cc3ccccc3)NC(=O)[C@H](Cc3c[nH]cn3)NC1=O)C(=O)N[C@@H](CCCCN)C(=O)N[C@@H](CCCCN)C(=O)N[C@@H](CCCCN)C(=O)N[C@@H](CCCNC(=N)N)C(=O)N2 [Chem. 101, c[c[Cys-Ala-His-D-Phe-Arg-Trp-Cys]- Lys-Lys-Lys-Arg]] (cyclo(AH[dF]RWCKKKRC); disulfide 6-11) | 0.05 | 0.04 | 5 | 0.19 | – | – | – |
| C[C@H]1NC(=O)[C@@H]2CSSC[C@H](NC(=O)[C@H](Cc3c[nH]c4ccccc34)NC(=O)[C@H](CCCNC(=N)N)NC(=O)[C@@H](Cc3ccccc3)NC(=O)[C@H](Cc3c[nH]cn3)NC1=O)C(=O)N[C@H](C)C(=O)N[C@@H](Cc1c[nH]cn1)C(=O)N[C@H](Cc1ccccc1)C(=O)N[C@@H](CCCNC(=N)N)C(=O)N[C@@H](Cc1c[nH]c3ccccc13)C(=O)N2 [Chem. 10, c[c[Cys-D-Ala-His-D-Phe-Arg-Trp- Cys]-D-Ala-His-D-Phe-Arg-Trp]] | – | – | 98 | – | 0.13 | 0.05 | 4.88 |
| CC1(C)NC(=O)[C@@H]2CSSC[C@H](NC(=O)[C@H](Cc3c[nH]c4ccccc34)NC(=O)[C@H](CCCNC(=N)N)NC(=O)[C@@H](Cc3ccccc3)NC(=O)[C@@H]3C[C@@H](O)CN3C1=O)C(=O)NC(C)(C)C(=O)N1C[C@H](O)C[C@H]1C(=O)N[C@H](Cc1ccccc1)C(=O)N[C@@H](CCCNC(=N)N)C(=O)N[C@@H](Cc1c[nH]c3ccccc13)C(=O)N2 [Chem. 38, c[c[Cys-Aib-Hyp-D-Phe-Arg-Trp- Cys]-Aib-Hyp-D-Phe-Arg-Trp]] (cyclo([Aib][Hyp][dF]RWC[Aib][Hyp][dF]RWC); disulfide 6-12) | 5.64 | 4.22 | – | > 3.7 | – | – | – |
| C[C@@H]1NC(=O)[C@H](C)NC(=O)[C@H](C)NC(=O)[C@@H]2CSSC[C@H](NC(=O)[C@H](CCCNC(=N)N)NC(=O)[C@H](C)NC1=O)C(=O)N[C@@H](C)C(=O)N[C@@H](Cc1c[nH]cn1)C(=O)N[C@H](Cc1ccccc1)C(=O)N[C@@H](CCCNC(=N)N)C(=O)N[C@@H](Cc1c[nH]c3ccccc13)C(=O)N2 [Chem. 89, c[c[Cys-Ala-His-D-Phe-Arg-Trp-Cys]- Ala-Ala-Ala-Ala-Arg]] (cyclo(AAAARCAH[dF]RWC); disulfide 6-12) | – | – | 30 | – | 0.07 | 0.02 | 0.59 |
| C[C@@H]1NC(=O)[C@H](C)NC(=O)[C@@H]2CSSC[C@H](NC(=O)[C@H](CCCNC(=N)N)NC(=O)[C@H](C)NC(=O)[C@@H](C)NC1=O)C(=O)N[C@@H](C)C(=O)N[C@@H](Cc1c[nH]cn1)C(=O)N[C@H](Cc1ccccc1)C(=O)N[C@@H](CCCNC(=N)N)C(=O)N[C@@H](Cc1c[nH]c3ccccc13)C(=O)N2 [Chem. 90, c[c[Cys-Ala-His-D-Phe-Arg-Trp-Cys]- Ala-Ala-D-Ala-Ala-Arg]] (cyclo(AA[dA]ARCAH[dF]RWC); disulfide 6-12) | – | – | 65 | – | 0.11 | 0.01 | 0.65 |
